ChEMBL document CHEMBL1201862, “PubChem BioAssay data set” (2004)
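Compound exposure: 48 hours, 5 concentrations, 96-well plates. The concentration for 50% growth inhibition is given as GI50.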 The source made the active and inactive calls. No stated cut-off is given here; in the data, active = GI50 up to about 1.1 µM and inactive = higher.

Legend:
Test in all cases: NCI anticancer screen, dose series, 48 h
786-0 = system: 786-0
SF-268 = system: SF-268
CCRF-CEM = system: CCRF-CEM
IGROV-1 = system: IGROV-1
BT-549 = system: BT-549
SW-620 = system: SW-620
SK-OV-3 = system: SK-OV-3
LOX IMVI = system: LOX IMVI
SN12C = system: SN12C
K562 = system: K562
OVCAR-8 = system: OVCAR-8
CAKI-1 = system: CAKI-1
MOLT-4 = system: MOLT-4
OVCAR-5 = system: OVCAR-5
HT-29 = system: HT-29
OVCAR-4 = system: OVCAR-4
UACC-257 = system: UACC-257
NCI-H226 = system: NCI-H226
HOP-62 = system: HOP-62
RXF 393 = system: RXF 393
A549 = system: A549
SK-MEL-5 = system: SK-MEL-5
UACC-62 = system: UACC-62
MDA-MB-231 = system: MDA-MB-231
M14 = system: M14
NCI/ADR-RES = system: NCI/ADR-RES
OVCAR-3 = system: OVCAR-3
MDA-N = system: MDA-N
PC-3 = system: PC-3
RPMI-8226 = system: RPMI-8226
SNB-75 = system: SNB-75
Malme-3M = system: Malme-3M
HCT-116 = system: HCT-116
COLO 205 = system: COLO 205
EKVX = system: EKVX
SNB-19 = system: SNB-19
NCI-H522 = system: NCI-H522
SK-MEL-2 = system: SK-MEL-2
Hs-578T = system: Hs-578T
KM12 = system: KM12
HCT-15 = system: HCT-15
MDA-MB-435 = system: MDA-MB-435
TK-10 = system: TK-10
SF-295 = system: SF-295
UO-31 = system: UO-31
HOP-92 = system: HOP-92
MCF7 = system: MCF7
HL-60 = system: HL-60
U-251 = system: U-251
DU-145 = system: DU-145
NCI-H23 = system: NCI-H23
SK-MEL-28 = system: SK-MEL-28
ACHN = system: ACHN
A498 = system: A498
NCI-H460 = system: NCI-H460
SR = system: SR
HCC 2998 = system: HCC 2998
SF-539 = system: SF-539
T47D = system: T47D

## Cc1ccc(S(=O)(=O)NC(=O)Nc2ccc(S(N)(=O)=O)cc2S(N)(=O)=O)cc1
786-0
  GI50: > 100 µM (inactive)
SF-268
  GI50: > 100 µM (inactive)
CCRF-CEM
  GI50: > 100 µM (inactive)
IGROV-1
  GI50: > 100 µM (inactive)
BT-549
  GI50: > 100 µM (inactive)
SW-620
  GI50: > 100 µM (inactive)
SK-OV-3
  GI50: > 100 µM (inactive)
LOX IMVI
  GI50: > 100 µM (inactive)
SN12C
  GI50: > 100 µM (inactive)
K562
  GI50: > 100 µM (inactive)
OVCAR-8
  GI50: > 100 µM (inactive)
CAKI-1
  GI50: > 100 µM (inactive)
MOLT-4
  GI50: > 100 µM (inactive)
OVCAR-5
  GI50: > 100 µM (inactive)
HT-29
  GI50: > 100 µM (inactive)
OVCAR-4
  GI50: > 100 µM (inactive)
UACC-257
  GI50: > 100 µM (inactive)
NCI-H226
  GI50: > 100 µM (inactive)
HOP-62
  GI50: > 100 µM (inactive)
RXF 393
  GI50: > 100 µM (inactive)
A549
  GI50: > 100 µM (inactive)
SK-MEL-5
  GI50: > 100 µM (inactive)
UACC-62
  GI50: > 100 µM (inactive)
MDA-MB-231
  GI50: > 100 µM (inactive)
M14
  GI50: > 100 µM (inactive)
NCI/ADR-RES
  GI50: > 100 µM (inactive)
OVCAR-3
  GI50: > 100 µM (inactive)
MDA-N
  GI50: > 100 µM (inactive)
PC-3
  GI50: > 100 µM (inactive)
RPMI-8226
  GI50: > 100 µM (inactive)
SNB-75
  GI50: > 100 µM (inactive)
Malme-3M
  GI50: > 100 µM (inactive)
HCT-116
  GI50: > 100 µM (inactive)
COLO 205
  GI50: > 100 µM (inactive)
EKVX
  GI50: > 100 µM (inactive)
SNB-19
  GI50: > 100 µM (inactive)
NCI-H522
  GI50: > 100 µM (inactive)
SK-MEL-2
  GI50: > 100 µM (inactive)
Hs-578T
  GI50: > 100 µM (inactive)
KM12
  GI50: > 100 µM (inactive)
HCT-15
  GI50: > 100 µM
MDA-MB-435
  GI50: > 100 µM (inactive)
TK-10
  GI50: > 100 µM (inactive)
SF-295
  GI50: > 100 µM (inactive)
UO-31
  GI50: > 100 µM (inactive)
HOP-92
  GI50: > 100 µM (inactive)
MCF7
  GI50: > 100 µM (inactive)
HL-60
  GI50: > 100 µM (inactive)
U-251
  GI50: > 100 µM (inactive)
DU-145
  GI50: > 100 µM (inactive)
NCI-H23
  GI50: > 100 µM (inactive)
SK-MEL-28
  GI50: > 100 µM (inactive)

## CNn1c(-c2ccc(C)cc2)n[nH]c1=O
786-0
  GI50: > 100 µM (inactive)
SF-268
  GI50: > 100 µM (inactive)
CCRF-CEM
  GI50: 92 µM (inactive)
IGROV-1
  GI50: > 100 µM (inactive)
BT-549
  GI50: > 100 µM (inactive)
SW-620
  GI50: > 100 µM (inactive)
ACHN
  GI50: > 100 µM (inactive)
SK-OV-3
  GI50: > 100 µM (inactive)
LOX IMVI
  GI50: > 100 µM (inactive)
SN12C
  GI50: > 100 µM (inactive)
A498
  GI50: > 100 µM (inactive)
K562
  GI50: 55.8 µM (inactive)
OVCAR-8
  GI50: > 100 µM (inactive)
CAKI-1
  GI50: > 100 µM (inactive)
MOLT-4
  GI50: > 100 µM (inactive)
OVCAR-5
  GI50: > 100 µM (inactive)
HT-29
  GI50: > 100 µM (inactive)
OVCAR-4
  GI50: > 100 µM (inactive)
UACC-257
  GI50: > 100 µM (inactive)
NCI-H226
  GI50: > 100 µM (inactive)
HOP-62
  GI50: > 100 µM (inactive)
RXF 393
  GI50: > 100 µM (inactive)
NCI-H460
  GI50: > 100 µM (inactive)
A549
  GI50: > 100 µM (inactive)
SK-MEL-5
  GI50: > 100 µM (inactive)
UACC-62
  GI50: > 100 µM (inactive)
MDA-MB-231
  GI50: > 100 µM (inactive)
SR
  GI50: 68.5 µM (inactive)
M14
  GI50: > 100 µM (inactive)
NCI/ADR-RES
  GI50: > 100 µM (inactive)
OVCAR-3
  GI50: > 100 µM (inactive)
HCC 2998
  GI50: > 100 µM (inactive)
PC-3
  GI50: > 100 µM (inactive)
RPMI-8226
  GI50: > 100 µM (inactive)
Malme-3M
  GI50: > 100 µM (inactive)
SF-539
  GI50: > 100 µM (inactive)
HCT-116
  GI50: > 100 µM (inactive)
COLO 205
  GI50: > 100 µM (inactive)
EKVX
  GI50: > 100 µM (inactive)
SNB-19
  GI50: > 100 µM (inactive)
NCI-H522
  GI50: > 100 µM (inactive)
SK-MEL-2
  GI50: > 100 µM (inactive)
T47D
  GI50: > 100 µM (inactive)
Hs-578T
  GI50: > 100 µM (inactive)
KM12
  GI50: > 100 µM (inactive)
HCT-15
  GI50: > 100 µM
MDA-MB-435
  GI50: > 100 µM (inactive)
TK-10
  GI50: > 100 µM (inactive)
SF-295
  GI50: > 100 µM (inactive)
UO-31
  GI50: > 100 µM (inactive)
HOP-92
  GI50: > 100 µM (inactive)
MCF7
  GI50: > 100 µM (inactive)
U-251
  GI50: > 100 µM (inactive)
NCI-H23
  GI50: > 100 µM (inactive)

## COc1ccc(OC)c(C#Cc2ccc(OC)c(C(=O)NCCc3ccc(F)cc3)c2)c1
786-0
  GI50: > 100 µM (inactive)
SF-268
  GI50: > 100 µM (inactive)
IGROV-1
  GI50: 3.53 µM (inactive)
BT-549
  GI50: > 100 µM (inactive)
SW-620
  GI50: 4.02 µM (inactive)
ACHN
  GI50: > 100 µM (inactive)
LOX IMVI
  GI50: > 100 µM (inactive)
A498
  GI50: 9.84 µM (inactive)
K562
  GI50: 2.39 µM (inactive)
OVCAR-8
  GI50: > 100 µM (inactive)
CAKI-1
  GI50: > 100 µM (inactive)
MOLT-4
  GI50: 2.19 µM (inactive)
OVCAR-5
  GI50: > 100 µM (inactive)
HT-29
  GI50: 3.17 µM (inactive)
OVCAR-4
  GI50: 6.32 µM (inactive)
UACC-257
  GI50: > 100 µM (inactive)
NCI-H460
  GI50: 5.09 µM (inactive)
A549
  GI50: 7.55 µM (inactive)
SK-MEL-5
  GI50: 4.42 µM (inactive)
SR
  GI50: 0.783 µM (active)
M14
  GI50: 5.53 µM (inactive)
NCI/ADR-RES
  GI50: 7.8 µM (inactive)
HCC 2998
  GI50: 2.27 µM (inactive)
PC-3
  GI50: 5.14 µM (inactive)
RPMI-8226
  GI50: 3.32 µM (inactive)
COLO 205
  GI50: 5.22 µM (inactive)
EKVX
  GI50: > 100 µM (inactive)
SNB-19
  GI50: 61.2 µM (inactive)
NCI-H522
  GI50: 2.25 µM (inactive)
SK-MEL-2
  GI50: 5.05 µM (inactive)
T47D
  GI50: 2.86 µM (inactive)
Hs-578T
  GI50: > 100 µM (inactive)
KM12
  GI50: 4.13 µM (inactive)
HCT-15
  GI50: 4.45 µM
MDA-MB-435
  GI50: 1.23 µM (inactive)
TK-10
  GI50: > 100 µM (inactive)
SF-295
  GI50: 4.67 µM (inactive)
UO-31
  GI50: 28.3 µM (inactive)
MCF7
  GI50: 6.5 µM (inactive)
HL-60
  GI50: 5.13 µM (inactive)
U-251
  GI50: 6.07 µM (inactive)
NCI-H23
  GI50: > 100 µM (inactive)
SK-MEL-28
  GI50: 1.73 µM (inactive)
